According to patent publication US20250340574A1, “MODULATORS OF CYSTIC FIBROSIS TRANSMEMBRANE CONDUCTANCE REGULATOR” (Vertex Pharmaceuticals Incorporated, priority 2022, published 2025):
pEC50: −log10 of the molar value.

Key:
Format in all cases: cell-based
[1] = target: T1, CFTR (F508del/MF-HBE cells) (Homo sapiens, UniProt P13569, DEL508-508); assay: Ussing chamber assay of CFTR-mediated short-circuit currents, Assay A (0.1 μM to 25 μM, 6 concentrations); settings: with 33 nM potentiator and 18 μM Tezacaftor, 20% human serum; for Emax: 18-24 hours, read-out: A Max activity (%)
T1 construct: human bronchial epithelial (HBE) cells derived from CF subjects heterozygous for F508del and a minimal function CFTR mutation (F508del/MF-HBE); endogenous in cells; host or cells: Primary human bronchial epithelial cells from CF subjects (F508del/MF genotype), differentiated at an air-liquid interface
T1 sequence (P13569 with tags, fused parts or gaps DEL508-508): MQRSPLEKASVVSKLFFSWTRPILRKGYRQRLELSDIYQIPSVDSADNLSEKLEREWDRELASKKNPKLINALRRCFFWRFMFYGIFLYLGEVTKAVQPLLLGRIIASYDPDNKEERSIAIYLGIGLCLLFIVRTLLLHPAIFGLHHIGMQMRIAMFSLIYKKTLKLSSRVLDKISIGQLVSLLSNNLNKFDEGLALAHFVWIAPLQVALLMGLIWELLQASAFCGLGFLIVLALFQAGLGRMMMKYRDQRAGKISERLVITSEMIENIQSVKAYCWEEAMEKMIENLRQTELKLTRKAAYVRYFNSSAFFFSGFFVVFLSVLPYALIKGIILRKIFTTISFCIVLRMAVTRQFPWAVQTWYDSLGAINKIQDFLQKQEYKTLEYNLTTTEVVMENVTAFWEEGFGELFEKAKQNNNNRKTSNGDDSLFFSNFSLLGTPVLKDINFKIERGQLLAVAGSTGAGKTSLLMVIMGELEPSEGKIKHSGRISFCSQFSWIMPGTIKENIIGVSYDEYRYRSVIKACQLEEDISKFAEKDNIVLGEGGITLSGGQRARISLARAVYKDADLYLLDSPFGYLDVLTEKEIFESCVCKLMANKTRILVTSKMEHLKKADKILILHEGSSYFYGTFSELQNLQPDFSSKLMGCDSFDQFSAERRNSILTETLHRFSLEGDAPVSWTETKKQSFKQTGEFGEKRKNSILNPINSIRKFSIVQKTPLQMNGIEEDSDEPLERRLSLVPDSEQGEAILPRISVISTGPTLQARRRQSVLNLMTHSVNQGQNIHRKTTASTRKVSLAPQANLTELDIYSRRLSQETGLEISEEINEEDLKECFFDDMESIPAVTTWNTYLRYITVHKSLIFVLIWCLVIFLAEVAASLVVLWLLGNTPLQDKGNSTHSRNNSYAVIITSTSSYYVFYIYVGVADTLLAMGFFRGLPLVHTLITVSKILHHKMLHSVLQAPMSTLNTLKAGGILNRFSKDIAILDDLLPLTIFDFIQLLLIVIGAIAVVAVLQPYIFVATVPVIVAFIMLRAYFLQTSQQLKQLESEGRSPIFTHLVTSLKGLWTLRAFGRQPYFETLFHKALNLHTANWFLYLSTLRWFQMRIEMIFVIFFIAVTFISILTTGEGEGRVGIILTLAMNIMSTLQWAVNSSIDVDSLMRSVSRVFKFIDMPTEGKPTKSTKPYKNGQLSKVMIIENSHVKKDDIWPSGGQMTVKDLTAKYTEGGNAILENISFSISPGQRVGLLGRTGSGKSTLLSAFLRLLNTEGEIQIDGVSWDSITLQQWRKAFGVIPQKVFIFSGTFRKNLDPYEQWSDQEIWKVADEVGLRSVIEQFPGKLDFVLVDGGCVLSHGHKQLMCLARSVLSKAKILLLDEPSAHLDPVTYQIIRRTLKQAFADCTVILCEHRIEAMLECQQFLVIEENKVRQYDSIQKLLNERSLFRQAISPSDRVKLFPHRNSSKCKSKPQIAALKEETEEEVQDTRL
Procedure: (§1) Ussing chamber experiments were performed using human bronchial epithelial (HBE) cells derived from CF subjects heterozygous for F508del and a minimal function CFTR mutation (F508del/MF-HBE) and cultured as previously described (Neuberger T, Burton B, Clark H, Van Goor F Methods Mol Biol 2011:741:39-54). After four days the apical media was removed, and the cells were grown at an air liquid interface for >14 days prior to use.
(§2) To isolate the CFTR-mediated short-circuit (ISC) current, F508del/MF-HBE grown on Costar® Snapwell™ cell culture inserts were mounted in an Ussing chamber and the transepithelial ISC was measured under voltage-clamp recording conditions (Vhold=0 mV) at 37° C. The basolateral solution contained (in mM) 145 NaCl, 0.83 K2HPO4, 3.3 KH2PO4, 1.2 MgCl2, 1.2 CaCl2, 10 Glucose, 10 HEPES (pH adjusted to 7.4 with NaOH) and the apical solution contained (in mM) 145 NaGluconate, 1.2 MgCl2, 1.2 CaCl2, 10 glucose, 10 HEPES (pH adjusted to 7.4 with NaOH) and 30 μM amiloride to block the epithelial sodium channel. Forskolin (20 μM) was added to the apical surface to activate CFTR, followed by apical addition of a CFTR inhibitor cocktail consisting of BPO, GlyH-101, and CFTR inhibitor 172 (each at 20 μM final assay concentration) to specifically isolate CFTR currents. The CFTR-mediated ISC (μA/cm^2) for each condition was determined from the peak forskolin response to the steady-state current following inhibition.
(§3) The activity of the CFTR corrector compounds on the CFTR-mediated ISC was determined in Ussing chamber studies as described above. The F508del/MF-HBE cell cultures were either incubated with the corrector compounds at a range of concentrations in combination with 33 nM (6R,12R)-17-amino-12-methyl-6,15-bis(trifluoromethyl)-13,19-dioxa-3,4,18-triazatricyclo[12.3.1.12,5]nonadeca-1(18),2,4,14,16-pentaen-6-ol and 18 μM Tezacaftor or were incubated with the corrector compounds at a single fixed concentration of 1 μM in combination with 44 nM (6R,12R)-17-amino-12-methyl-6,15-bis(trifluoromethyl)-13,19-dioxa-3,4,18-triazatricyclo[12.3.1.12,5]nonadeca-1(18),2,4,14,16-pentaen-6-ol and 18 μM Tezacaftor for 18-24 hours at 37° C. and in the presence of 20% human serum. The concentration of corrector compounds with 44 nM or 33 nM (6R,12R)-17-amino-12-methyl-6,15-bis(trifluoromethyl)-13,19-dioxa-3,4,18-triazatricyclo[12.3.1.12,5]nonadeca-1(18),2,4,14,16-pentaen-6-ol and 18 μM Tezacaftor during the 18-24 hours incubations was kept constant throughout the Ussing chamber measurement of the CFTR-mediated ISC to ensure compounds were present throughout the entire experiment. The efficacy and potency of the putative F508del correctors was compared to that of the known Vertex corrector, (14S)-8-[3-(2-{Dispiro[2.0.2.1]heptan-7-yl}ethoxy)-1H-pyrazol-1-yl]-12,12-dimethyl-2λ^6-thia-3,9,11,18,23-pentaazatetracyclo[17.3.1.111,14.05,10]tetracosa-1(22),5,7,9,19(23),20-hexaene-2,2,4-trione, in combination with 18 μM Tezacaftor and 1 μM Ivacaftor.
(§4) • Assay A: 0.1 μM to 25 μM, 6 concentrations • Assay B: 0.00001 μM to 25 μM, 12 concentrations • Assay C: 0.026 μM to 25 μM, 6 concentrations • Assay D: Activity at single concentration of 1 μM

[2] = target: T1, CFTR (F508del/MF-HBE cells); assay: Ussing chamber assay of CFTR-mediated short-circuit currents, Assay B (0.00001 μM to 25 μM, 12 concentrations); settings: with 33 nM potentiator and 18 μM Tezacaftor, 20% human serum; for Emax: read-out: B Max activity (%)
Procedure: as §1, §2, §3, §4

[3] = target: T1, CFTR (F508del/MF-HBE cells); assay: Ussing chamber assay of CFTR-mediated short-circuit currents, Assay C (0.026 μM to 25 μM, 6 concentrations); settings: with 33 nM potentiator and 18 μM Tezacaftor, 20% human serum; for Emax: read-out: C Max activity (%)
Summary of the method: (§5)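 Short-circuit current was recorded at 37 °C under voltage clamp (0 mV) with amiloride 30 μM apically, forskolin 20 μM activation, then BPO/GlyH-101/inh-172 (20 μM each) to isolate CFTR current. Before recording, corrector exposure lasted 18–24 h with 18 μM tezacaftor, 20% human serum, and 33 nM (dose–response) or 44 nM (1 μM fixed) potentiator, maintained throughout.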

[4] = target: T1, CFTR (F508del/MF-HBE cells); assay: Ussing chamber assay of CFTR-mediated short-circuit currents, Assay D (single concentration of 1 μM); settings: with 44 nM potentiator and 18 μM Tezacaftor, 18-24 hours, 20% human serum
Summary of the method: as §5

Row | SMILES | Emax [1] | pEC50 [1] | Emax ([2]; 18-24 hours) | pEC50 [2] | also measured
1 | Cc1cccc(C)c1-c1cc2nc(n1)NS(=O)(=O)c1cccc(c1)C(=O)N(Cc1cnc3nc(C4CC4)n(C)c3n1)[C@H](COC(C)C)CO2 [Compound I-139] | – | – | > 60% | 4.52 to 5.52 | –
2 | Cc1cccc(C)c1-c1cc2nc(n1)NS(=O)(=O)c1cccc(c1)C(=O)N(Cc1cnc3oc(C4CC4)cc3n1)[C@H](CC1CCCC1)CO2 [Compound I-61] | – | – | > 60% | 4.52 to 5.52 | –
3 | Cc1cccc(C)c1-c1cc2nc(n1)NS(=O)(=O)c1cccc(c1)C(=O)N(Cc1cnc3oc(C(C)C)cc3n1)[C@H](CC1CC1)CO2 [Compound I-57] | > 60% | > 6.00 | > 60% | 4.52 to 5.52 | –
4 | Cc1cccc(C)c1-c1cc2nc(n1)NS(=O)(=O)c1cccc(c1)C(=O)N(Cc1cnc3oc(C(C)C)cc3n1)[C@@H](CCC1(C)CC1)CO2 (stereo in doubt) [Compound I-70] | > 60% | > 6.00 | > 60% | 4.52 to 5.52 | –
5 | Cc1cccc(C)c1-c1cc2nc(n1)NS(=O)(=O)c1cccc(c1)C(=O)N(Cc1cnc3oc(C(C)C)cc3n1)[C@H](CC1CCC1)CO2 [Compound I-56] | > 60% | > 6.00 | > 60% | 5.52 to 6.00 | –
6 | Cc1cccc(C)c1-c1cc2nc(n1)NS(=O)(=O)c1cccc(c1)C(=O)N(Cc1nc3cc(C(C)C)oc3cc1F)[C@H](CC13CC(C1)C3)CO2 [Compound I-89] | > 60% | > 6.00 | > 60% | 5.52 to 6.00 | –
7 | Cc1cccc(CC(C)C)c1-c1nc2nc(c1C)OC[C@@H](CC(C)(C)C)N(Cc1cnc3oc(C(C)C)cc3n1)C(=O)c1cccc(c1)S(=O)(=O)N2 (atropisomer, axis not shown) [Compound I-65] | > 60% | > 6.00 | > 60% | 5.52 to 6.00 | –
8 | Cc1cccc(C)c1-c1cc2nc(n1)NS(=O)(=O)c1cccc(c1)C(=O)N(Cc1cnc3oc(C4CC4)cc3n1)[C@H](CCC(C)C)CO2 [Compound I-130] | – | – | > 60% | 4.52 to 5.52 | –
9 | Cc1cccc(CC(C)C)c1-c1nc2nc(c1C)OC[C@@H](CC(C)(C)C)N(Cc1cnc3cc(C(C)(C)C)n(C)c3n1)C(=O)c1cccc(c1)S(=O)(=O)N2 [Compound I-206, (5P,11R)-12-({6-tert-butyl-5-methyl-5H-pyrrolo[2,3-b]pyrazin-3-yl}methyl)-11-(2,2-dimethylpropyl)-7-methyl-6-[2-methyl-6-(2-methylpropyl)phenyl]-9-oxa-2λ^6-thia-3,5,12,19-tetraazatricyclo[12.3.1.1∧{4,8}]nonadeca-1(17),4(19),5,7,14(18),15-hexaene-2,2,13-trione] | – | – | – | > 6.00 | B Max activity (%) ([2]; 18-24 hours): +++ (+++ is >60%); C Max activity (%) ([3]; 18-24 hours): +++ (+++ is >60%); pEC50 [3]: > 6.00
10 | Cc1cccc(C)c1-c1cc2nc(n1)NS(=O)(=O)c1cccc(c1)C(=O)N(Cc1cnc3oc(C4CC4)cc3n1)[C@H](COC1CCCC1)CO2 [Compound I-118] | – | – | > 60% | 4.52 to 5.52 | –
11 | Cc1cccc(C)c1-c1cc2nc(n1)NS(=O)(=O)c1cccc(c1)C(=O)N(Cc1cnc3oc(C4CC4)cc3n1)C(CCC1(C)CC1)CO2 (single isomer, unassigned) [Compound I-71, 12-[(6-cyclopropylfuro[2,3-b]pyrazin-2-yl)methyl]-6-(2,6-dimethylphenyl)-11-[2-(1-methylcyclopropyl)ethyl]-2,2-dioxo-9-oxa-2λ^6-thia-3,5,12,19-tetrazatricyclo[12.3.1.14,8]nonadeca-1(18),4(19),5,7,14,16-hexaen-13-one] | > 60% | > 6.00 | > 60% | 4.52 to 5.52 | –
12 | Cc1cccc(C)c1-c1cc2nc(n1)NS(=O)(=O)c1cccc(c1)C(=O)N(Cc1cnc3oc(C4CC4)cc3n1)[C@H](CC1CC1)CO2 [Compound I-103] | > 60% | > 6.00 | > 60% | 5.52 to 6.00 | –
13 | Cc1cccc(C)c1-c1cc2nc(n1)NS(=O)(=O)c1cccc(c1)C(=O)N(Cc1cnc3oc(C4CC4)cc3n1)[C@H](CC1CCC1)CO2 [Compound I-104, (11R)-11-(cyclobutylmethyl)-12-[(6-cyclopropylfuro[2,3-b]pyrazin-2-yl)methyl]-6-(2,6-dimethylphenyl)-2,2-dioxo-9-oxa-2λ^6-thia-3,5,12,19-tetrazatricyclo[12.3.1.14,8]nonadeca-1(18),4(19),5,7,14,16-hexaen-13-one] | > 60% | > 6.00 | > 60% | 4.52 to 5.52 | –

Second part, led by results:

Row | Emax [1] | pEC50 [1] | Emax ([2]; 18-24 hours) | pEC50 [2] | SMILES | also measured
14 | > 60% | > 6.00 | > 60% | 5.52 to 6.00 | Cc1cccc(C)c1-c1cc2nc(n1)NS(=O)(=O)c1cccc(c1)C(=O)N(Cc1cnc3oc(C4(C)CC4)cc3n1)[C@H](CC13CC(C1)C3)CO2 [Compound I-97] | –
15 | > 60% | > 6.00 | > 60% | 5.52 to 6.00 | Cc1cccc(C)c1-c1cc2nc(n1)NS(=O)(=O)c1cccc(c1)C(=O)N(Cc1cnc3oc(C4CC4)cc3n1)[C@H](CCC(C)(C)C)CO2 [Compound I-24] | –
16 | – | – | – | > 6.00 | Cc1cccc(CC(C)C)c1-c1nc2nc(c1C)OC[C@@H](CC13CC(C1)C3)N(Cc1cnc3cc(C(C)(C)C)n(C)c3n1)C(=O)c1cccc(c1)S(=O)(=O)N2 [IV-1] | Emax [2]: > 60%
17 | > 60% | > 6.00 | > 60% | > 6.00 | Cc1cccc(CC(C)C)c1-c1nc2nc(c1C)OC[C@@H](CC(C)(C)C)N(Cc1cnc3cc(C(C)C)n(C)c3n1)C(=O)c1cccc(c1)S(=O)(=O)N2 (atropisomer, axis not shown) [Compound I-82] | –
18 | – | – | – | > 6.00 | COCCc1c(C(C)(C)C)n(C)c2nc(CN3C(=O)c4cccc(c4)S(=O)(=O)Nc4nc(c(OC)c(-c5c(C)cccc5CC(C)C)n4)OC[C@H]3CC(C)(C)C)cnc12 (atropisomer, axis not shown) [IV-94] | Emax [2]: > 60%; pEC50 [3]: > 6.00; Emax [3]: > 60%
19 | – | – | > 60% | > 6.00 | Cc1cccc(C)c1-c1nc2nc(c1C)OC[C@@H](COC(C)C)N(Cc1cnc3cc(C(C)(C)C)n(C)c3n1)C(=O)c1cccc(c1)S(=O)(=O)N2 [Compound I-182] | Emax ([3]; 18-24 hours): > 60%; pEC50 [3]: > 6.00; D activity at 1 μM (%) [4]: +++ (+++ is >60%)
